According to patent US20080003215A1, “Use of pre-dissolved pristinamycin-type and polyether ionophore type antimicrobial agents in the production of ethanol” (priority 2006, published 2008):
Like-named read-outs stand apart in the source and are kept apart here.

Key:
[1] = cited from earlier work
[2] = Solubility of virginiamycin in several solvents (applicant's determination); assay type: physicochemical
Method: The solubility of virginiamycin in several solvents were determined. Each of these solvents can be useful in solubilized organic liquid comprising antimicrobial material, an emulsion of the same in water, or in both. […] Such a solution is stable, pumpable, and useful not only for treatments of ethanol-producing facilities but for a number of other uses where virginiamycin is used.

[3] = test system: L. plantarum; assay: Development of resistance test (10 week duration); assay type: cell-based; conditions: 10 week duration of the test
Description: One very effective control program involves the introduction of pristinamycin-type antimicrobial agents, and particularly virginiamycin, to the process. […] Usually, the “waste” byproduct, known as “Dried Distillers Grains with Solubles (DDGS), is sold as animal feed, going 45% to dairy, 35% to beef, 15% to swine, and 5% to poultry industries. This is an important factor in the profitability of an ethanol production process, and the total amount of this byproduct produced per year is on the order of 3.5 million metric tons per year. The presence of residual antimicrobial agents in this material can adversely affect the value of this byproduct, as small residual amounts of antimicrobial agents in feed will promote the development of agent-resistant microorganisms. We have tested DDGS samples from 8 major ethanol producers using virginiamycin to control microorganisms and found no detectable amount of virginiamycin in the DDGS (<1 ppm via the validated Eurofins analysis and <1 ppb via an unvalidated experimental analytical procedure). […] Generally, however, the virginiamycin in mash is destroyed by drying so virginiamycin must be re-added to the feed if so desired. Other effective control agents include polyether ionophore-type antimicrobial agents, which provide many of the benefits obtained with pristinamycin-type antimicrobial agents. […]

[4] = Rate of dissolution of powdered virginiamycin in stirred water; assay type: physicochemical; conditions: 0.1 gram of 5.2 to 10 micron average particle size powder in 4 liters of water, continuously stirred
Description: The solubility of monensin, virginiamycin, and similar pristinamycin-type antimicrobial agents and polyether ionophore-type antimicrobial agents in water is very low. Much more important, however, is the rate of dissolution of small granular pristinamycin-type antimicrobial agents and polyether ionophore-type antimicrobial agents in water. A 0.1 gram sample of a 5.2 to 10 micron average particle size virginiamycin was placed in a beaker with 4 liters of water, and the composition was continuously stirred. The presence of undissolved crystals was very evident.

[5] = solvent: 50% NMP/50% Ethyl lactate

virginiamycin
Solubility (literature data, "virginiamycin-type" compounds) ([1]; solvent: 1% ethanol in water): 0.002 g/L
Solubility (literature data, "virginiamycin-type" compounds) ([1]; solvent: DMSO): > 100 g/L
Solubility (literature data, "virginiamycin-type" compounds) ([1]; solvent: acetone, disproportionate solubilities for Type A and Type B): ~190 g/L
Solubility (literature data, "virginiamycin-type" compounds) ([1]; solvent: amylacetate): > 4 g/L
Solubility (literature data, "virginiamycin-type" compounds) ([1]; solvent: benzene): > 3 g/L
Solubility (literature data, "virginiamycin-type" compounds) ([1]; solvent: butanol): > 10 g/L
Solubility (literature data, "virginiamycin-type" compounds) ([1]; solvent: carbon tetrachloride): 0.02 g/L
Solubility (literature data, "virginiamycin-type" compounds) ([1]; solvent: chloroform): 150 g/L
Solubility (literature data, "virginiamycin-type" compounds) ([1]; solvent: dimethylformamide): 200 g/L
Virginiamycin that can be dissolved (literature data) ([1]; solvent: dimethylformamide): 200 grams
Virginiamycin that can be dissolved (literature data) ([1]; solvent: dimethylsulfoxide): 200 grams
Solubility (literature data, "virginiamycin-type" compounds) ([1]; solvent: dioxane): 130 g/L
Solubility (literature data, "virginiamycin-type" compounds) ([1]; solvent: ethanol): 70 g/L
Solubility (literature data, "virginiamycin-type" compounds) ([1]; solvent: ether, disproportionate solubilities for Type A and Type B): 11 g/L
Solubility (literature data, "virginiamycin-type" compounds) ([1]; solvent: ethyl acetate, disproportionate solubilities for Type A and Type B): ~205 g/L
Solubility (literature data, "virginiamycin-type" compounds) ([1]; solvent: hexane): 0.2 g/L
Solubility (literature data, "virginiamycin-type" compounds) ([1]; solvent: isopropanol): > 10 g/L
Solubility (literature data, "virginiamycin-type" compounds) ([1]; solvent: methanol): 25 g/L
Solubility (literature data, "virginiamycin-type" compounds) ([1]; solvent: methylethylketone): 35 g/L
Solubility (literature data, "virginiamycin-type" compounds) ([1]; solvent: toluene, disproportionate solubilities for Type A and Type B): 82 g/L
Solubility (literature data, "virginiamycin-type" compounds) ([1]; solvent: water): 0.0002 g/L
Solubility in water ([1]; water, background statement): 0.0001 grams/l
Concentration that can be dissolved ([2]; ethanol with water, at least 75% by weight ethanol (balance water)): ~70 g/L
Virginiamycin solubility in grams per liter of solvent ([2]; solvent: 2-ethyl hexyl lactate): 24 grams per liter
Virginiamycin solubility in grams per liter of solvent ([2]; solvent: 2-ethyl hexyl lactate, listed as Virginiamycin): ˜24 grams per liter
Virginiamycin solubility in grams per liter of solvent ([2]; solvent: 50% NMP/50% DMSO): ˜335 grams per liter
Gel formation of virginiamycin solution [2, 5]: forms a hard gel at 280
Virginiamycin solubility in grams per liter of solvent [2, 5]: <200 grams per liter
Virginiamycin solubility in grams per liter of solvent ([2]; solvent: 70% ethanol/30% water): ˜70 grams per liter
Virginiamycin solubility in grams per liter of solvent ([2]; solvent: Dimethylsulfoxide (DMSO)): ˜270 grams per liter
Virginiamycin solubility in grams per liter of solvent ([2]; solvent: Ethyl lactate): about 92 grams per liter
Virginiamycin solubility in grams per liter of solvent ([2]; solvent: Ethyl lactate, listed as Virginiamycin): ˜92 grams per liter
Virginiamycin solubility in grams per liter of solvent ([2]; solvent: Methyl soyate ester): <1 gram per liter
Virginiamycin solubility in grams per liter of solvent ([2]; solvent: N,N-dimethylcapramide): ˜70 grams per liter
Virginiamycin solubility in grams per liter of solvent ([2]; solvent: N-methylpyrrolidone (NMP)): ˜260 grams per liter
Amount of virginiamycin dissolved per liter ([2]; solvent: NMP, over a short period of time): about 290 grams per liter
Virginiamycin solubility in grams per liter of solvent ([2]; solvent: tetrahydrofurfuryl alcohol): <160 grams per liter
Time until L. plantarum developed resistance [3]: no development of resistance
Time until only a few crystals remained visible (dissolution) [4]: on the order of an hour
